Source: US10160747B2, “Compounds and methods for kinase modulation, and indications therefor” (Plexxikon Inc., priority 2016, dated 2018)

Experiments:
BA/F3-FLT3-ITD + D835Y = molecular target: T1, BA/F3-FLT3-ITD + D835Y (Homo sapiens, UniProt P36888, D835Y, cells depend on it, form not given); experiment: Engineered BA/F3 cell growth assay, FLT3 ITD/D835Y; format: cell-based, murine; details: 3 d growth
T1 sequence (P36888 with tags, fused parts or gaps INS600HVDFREYEYD/D835Y): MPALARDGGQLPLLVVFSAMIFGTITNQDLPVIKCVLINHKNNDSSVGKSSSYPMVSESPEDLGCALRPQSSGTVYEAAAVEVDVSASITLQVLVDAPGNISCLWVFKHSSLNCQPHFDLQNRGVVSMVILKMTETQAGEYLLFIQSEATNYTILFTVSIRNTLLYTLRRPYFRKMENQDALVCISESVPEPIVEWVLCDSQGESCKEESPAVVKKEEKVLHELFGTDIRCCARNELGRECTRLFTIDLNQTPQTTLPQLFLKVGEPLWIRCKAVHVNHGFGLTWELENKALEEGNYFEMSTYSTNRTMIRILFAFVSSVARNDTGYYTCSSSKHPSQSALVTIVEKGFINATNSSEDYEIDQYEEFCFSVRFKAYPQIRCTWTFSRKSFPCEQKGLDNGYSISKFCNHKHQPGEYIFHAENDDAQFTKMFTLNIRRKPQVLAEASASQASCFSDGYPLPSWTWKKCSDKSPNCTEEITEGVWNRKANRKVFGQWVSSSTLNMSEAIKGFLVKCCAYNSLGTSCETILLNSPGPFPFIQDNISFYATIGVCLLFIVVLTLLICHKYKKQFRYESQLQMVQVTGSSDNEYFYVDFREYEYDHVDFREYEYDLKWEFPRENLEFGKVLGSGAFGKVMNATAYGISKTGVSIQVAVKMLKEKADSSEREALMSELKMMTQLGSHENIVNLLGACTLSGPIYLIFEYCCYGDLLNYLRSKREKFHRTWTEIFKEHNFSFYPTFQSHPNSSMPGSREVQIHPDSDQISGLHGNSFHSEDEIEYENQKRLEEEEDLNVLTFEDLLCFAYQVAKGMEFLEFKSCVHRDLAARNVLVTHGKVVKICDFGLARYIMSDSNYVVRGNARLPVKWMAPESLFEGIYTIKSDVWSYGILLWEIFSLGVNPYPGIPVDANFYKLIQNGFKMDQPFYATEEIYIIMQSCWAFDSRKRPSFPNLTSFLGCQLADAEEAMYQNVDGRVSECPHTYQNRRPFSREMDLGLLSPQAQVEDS
Summary of the method: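 Murine Ba/F3 cells transfected with full-length FLT3 ITD/D835Y, grown without IL-3 so growth depends on FLT3. Seeded at 1×10^4 cells/well, 8-point 1:3 series to 1 μM top (0.2% DMSO), 3 days at 37 °C. CellTiter-Glo luminescence (ATP) versus concentration gave IC50.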

CSF1R = CSF1R (Homo sapiens, UniProt P07333); experiment: CSF1R 100 ATP 8 pt kinase assay (Table 6); format: biochemical
Description: The following Table 6 provides data indicating FLT3 ITD, D835Y and F691L; c-KIT and CSF1R biochemical and/or cell inhibitory activity for exemplary compounds as described herein.

[1] = system: MOLM-14 F691L (endogenous FLT3 ITD and transfected FLT3 F691L); experiment: MOLM-14 F691L cell proliferation assay (CellTiter-Glo); format: cell-based; details: Homo sapiens, MOLM-14, 72 h; 3 d growth, GMean
Summary of the method: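 Three-day proliferation at 37 °C/5% CO2 of FLT3-ITD MOLM-14 lines with D835Y or F691L mutation, seeded 1×10^4 per well. Compounds at eight points, top 1 μM final, 0.2% DMSO. ATP luminescence (CellTiter-Glo) gives IC50.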

CSF1R, sequence (P07333 20-972, species assumed): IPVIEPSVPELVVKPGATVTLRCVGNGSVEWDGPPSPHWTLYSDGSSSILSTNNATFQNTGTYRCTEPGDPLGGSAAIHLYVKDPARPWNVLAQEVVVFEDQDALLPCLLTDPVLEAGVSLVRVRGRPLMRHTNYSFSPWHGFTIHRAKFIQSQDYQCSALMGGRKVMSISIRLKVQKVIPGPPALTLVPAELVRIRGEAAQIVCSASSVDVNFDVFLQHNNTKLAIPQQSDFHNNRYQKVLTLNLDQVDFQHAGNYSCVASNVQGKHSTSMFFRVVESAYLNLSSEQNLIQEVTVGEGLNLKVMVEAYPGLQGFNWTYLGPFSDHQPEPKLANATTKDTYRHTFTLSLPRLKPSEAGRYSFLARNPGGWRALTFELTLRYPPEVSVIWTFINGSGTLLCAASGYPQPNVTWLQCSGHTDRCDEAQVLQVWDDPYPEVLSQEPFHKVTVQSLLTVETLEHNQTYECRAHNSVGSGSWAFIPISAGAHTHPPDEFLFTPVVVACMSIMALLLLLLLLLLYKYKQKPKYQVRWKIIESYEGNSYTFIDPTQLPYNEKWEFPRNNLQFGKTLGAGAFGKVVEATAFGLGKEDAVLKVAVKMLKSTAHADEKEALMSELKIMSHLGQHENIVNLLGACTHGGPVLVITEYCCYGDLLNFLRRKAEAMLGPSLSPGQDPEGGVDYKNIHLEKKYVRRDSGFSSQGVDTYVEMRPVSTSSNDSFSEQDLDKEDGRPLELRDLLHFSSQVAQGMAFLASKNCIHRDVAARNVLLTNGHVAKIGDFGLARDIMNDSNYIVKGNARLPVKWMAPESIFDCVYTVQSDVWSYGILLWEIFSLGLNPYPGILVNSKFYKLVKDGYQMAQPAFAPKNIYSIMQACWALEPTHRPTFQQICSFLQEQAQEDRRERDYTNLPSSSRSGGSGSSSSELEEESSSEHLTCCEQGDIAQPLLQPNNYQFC

| GI50 (BA/F3-FLT3-ITD + D835Y) | IC50 (CSF1R) | IC50 [1] | SMILES |
| --- | --- | --- | --- |
| 0.0001 to 10 µM | 0.0001 to 10 µM | 0.0001 to 10 µM | CCC(=O)c1c[nH]c2ncc(-c3ccc(CC(=O)Nc4cnc(C)c(C(F)(F)F)c4)c(F)c3)cc12 [Compound P-0070, 2-[2-fluoro-4-(3-propanoyl-1H-pyrrolo[2,3-b]pyridin-5-yl)phenyl]-N-[6-methyl-5-(trifluoromethyl)-3-pyridyl]acetamide] |
| 0.0001 to 10 µM |  | 0.0001 to 10 µM | Cc1ncc(NC(=O)Cc2ccc(-c3cnc4[nH]cc(Cl)c4n3)cc2)cc1C(F)(F)F [Compound P-0079, 2-(4-(7-chloro-5H-pyrrolo[2,3-b]pyrazin-2-yl)phenyl)-N-(6-methyl-5-(trifluoromethyl)pyridin-3-yl)acetamide] |
| 0.0001 to 10 µM |  | 0.0001 to 10 µM | O=C(Cc1ccc(-c2cnc(Nc3cnn4ccccc34)nc2)cc1F)Nc1ccnc(C(F)(F)F)c1 [Compound P-0033, 2-[2-fluoro-4-[2-(pyrazolo[1,5-a]pyridin-3-ylamino)pyrimidin-5-yl]phenyl]-N-[2-(trifluoromethyl)-4-pyridyl]acetamide] |
| 0.0001 to 10 µM |  | 0.0001 to 10 µM | Cn1cc(Nc2ncc(-c3ccc(CC(=O)NCc4ccc(C(F)(F)F)nc4)c(F)c3)cn2)cn1 [Compound P-0087, 2-[2-fluoro-4-[2-[(1-methylpyrazol-4-yl)amino]pyrimidin-5-yl]phenyl]-N-[[6-(trifluoromethyl)-3-pyridyl]methyl]acetamide] |
| 0.0001 to 10 µM |  | 0.0001 to 10 µM | COc1ncc(NC(=O)Cc2ccc(-c3cnc4[nH]cc(C(C)=O)c4c3)cc2F)cc1C(F)(F)F [Compound P-0035, 2-[4-(3-acetyl-1H-pyrrolo[2,3-b]pyridin-5-yl)-2-fluoro-phenyl]-N-[6-methoxy-5-(trifluoromethyl)-3-pyridyl]acetamide] |
| 0.0001 to 10 µM |  | 0.0001 to 10 µM | COc1cncc(NC(=O)Cc2ccc(-c3cnc(Nc4cnn(C)c4)nc3)cc2F)c1 [Compound P-0086, 2-[2-fluoro-4-[2-[(1-methylpyrazol-4-yl)amino]pyrimidin-5-yl]phenyl]-N-(5-methoxy-3-pyridyl)acetamide] |
| 0.0001 to 10 µM |  | 0.0001 to 10 µM | COc1ncc(NC(=O)Cc2ccc(-c3cnc(Nc4cnn5ccccc45)nc3)cc2F)cc1C(F)(F)F [Compound P-0037, 2-[2-fluoro-4-[2-(pyrazolo[1,5-a]pyridin-3-ylamino)pyrimidin-5-yl]phenyl]-N-[6-methoxy-5-(trifluoromethyl)-3-pyridyl]acetamide] |
| 0.0001 to 10 µM |  | 0.0001 to 10 µM | O=C(Cc1ccc(-c2cnc(Nc3cnn(C(F)F)c3)nc2)c(F)c1)Nc1cc(C(F)(F)F)ccn1 [Compound P-0024, 2-[4-[2-[[1-(difluoromethyl)pyrazol-4-yl]amino]pyrimidin-5-yl]-3-fluoro-phenyl]-N-[4-(trifluoromethyl)-2-pyridyl]acetamide] |
| 0.0001 to 10 µM |  | 0.0001 to 10 µM | COc1ncc(NC(=O)Cc2ccc(-c3cnc4[nH]cc(F)c4c3)cc2F)cc1C(F)(F)F [Compound P-0034, 2-[2-fluoro-4-(3-fluoro-1H-pyrrolo[2,3-b]pyridin-5-yl)phenyl]-N-[6-methoxy-5-(trifluoromethyl)-3-pyridyl]acetamide] |
| 0.0001 to 10 µM |  | 0.0001 to 10 µM | CCC(=O)c1c[nH]c2ncc(-c3ccc(CC(=O)Nc4cncc(C(F)(F)F)c4)c(F)c3)cc12 [Compound P-0068, 2-[2-fluoro-4-(3-propanoyl-1H-pyrrolo[2,3-b]pyridin-5-yl)phenyl]-N-[5-(trifluoromethyl)-3-pyridyl]acetamide] |
| 0.0001 to 10 µM |  | 0.0001 to 10 µM | Cn1cnc(Nc2ncc(-c3cc(F)c(CC(=O)Nc4cncc(C(F)(F)F)c4)cc3F)cn2)c1 [Compound P-0078, 2-(2,5-difluoro-4-(2-((1-methyl-1H-imidazol-4-yl)amino)pyrimidin-5-yl)phenyl)-N-(5-(trifluoromethyl)pyridin-3-yl)acetamide] |
| 0.0001 to 10 µM |  | 0.0001 to 10 µM | COc1ncc(NC(=O)Cc2ccc(-c3cnc4[nH]cc(Cl)c4n3)cc2F)cc1C(F)(F)F [Compound P-0047, 2-[4-(7-chloro-5H-pyrrolo[2,3-b]pyrazin-2-yl)-2-fluoro-phenyl]-N-[6-methoxy-5-(trifluoromethyl)-3-pyridyl]acetamide] |
| 0.0001 to 10 µM |  | 0.0001 to 10 µM | Cn1cc(Nc2ncc(-c3ccc(CC(=O)Nc4cncc(C(C)(F)F)c4)c(F)c3)cn2)cn1 [Compound P-0090, N-[5-(1,1-difluoroethyl)-3-pyridyl]-2-[2-fluoro-4-[2-[(1-methylpyrazol-4-yl)amino]pyrimidin-5-yl]phenyl]acetamide] |
| 0.0001 to 10 µM |  | 0.0001 to 10 µM | Cn1cc(Nc2ncc(-c3ccc(CC(=O)Nc4cc(C(F)(F)F)ccn4)c(F)c3)cn2)cn1 [Compound P-0082, 2-[2-fluoro-4-[2-[(1-methylpyrazol-4-yl)amino]pyrimidin-5-yl]phenyl]-N-[4-(trifluoromethyl)-2-pyridyl]acetamide] |
| 0.0001 to 10 µM |  | 0.0001 to 10 µM | Cc1ncc(NC(=O)Cc2ccc(-c3cnc4[nH]cc(Cl)c4n3)cc2F)cc1C(F)(F)F [Compound P-0059, 2-[4-(7-chloro-5H-pyrrolo[2,3-b]pyrazin-2-yl)-2-fluoro-phenyl]-N-[6-methyl-5-(trifluoromethyl)-3-pyridyl]acetamide] |
| 0.0001 to 10 µM |  | 0.0001 to 10 µM | O=C(Cc1ccc(-c2cnc(Nc3cnn4ccccc34)nc2)c(F)c1)Nc1cncc(C(F)(F)F)c1 [Compound P-0071, 2-[3-fluoro-4-[2-(pyrazolo[1,5-a]pyridin-3-ylamino)pyrimidin-5-yl]phenyl]-N-[5-(trifluoromethyl)-3-pyridyl]acetamide] |
| 0.0001 to 10 µM |  | 0.0001 to 10 µM | Cn1cnc(Nc2ncc(-c3ccc(CC(=O)Nc4cncc(C(F)(F)F)c4)c(F)c3)cn2)c1 [Compound P-0052, 2-[2-fluoro-4-[2-[(1-methylimidazol-4-yl)amino]pyrimidin-5-yl]phenyl]-N-[5-(trifluoromethyl)-3-pyridyl]acetamide] |
| 0.0001 to 10 µM |  | 0.0001 to 10 µM | COc1nn(C[C@H](C)O)cc1Nc1ncc(-c2ccc(CC(=O)Nc3cncc(C(F)(F)F)c3)c(F)c2)cn1 [Compound P-0050, 2-[2-fluoro-4-[2-[[1-[(2S)-2-hydroxypropyl]-3-methoxy-pyrazol-4-yl]amino]pyrimidin-5-yl]phenyl]-N-[5-(trifluoromethyl)-3-pyridyl]acetamide] |
| 0.0001 to 10 µM |  | 0.0001 to 10 µM | Cc1ncc(NC(=O)Cc2ccc(-c3cnc4[nH]cc(F)c4c3)cc2F)cc1C(F)(F)F [Compound P-0062, 2-[2-fluoro-4-(3-fluoro-1H-pyrrolo[2,3-b]pyridin-5-yl)phenyl]-N-[6-methyl-5-(trifluoromethyl)-3-pyridyl]acetamide] |
| 0.0001 to 10 µM |  | 0.0001 to 10 µM | Cn1cc(Nc2ncc(-c3ccc(CC(=O)Nc4cncc(C(F)(F)F)c4)c(F)c3)cn2)cn1 [Compound P-0084, 2-[2-fluoro-4-[2-[(1-methylpyrazol-4-yl)amino]pyrimidin-5-yl]phenyl]-N-[5-(trifluoromethyl)-3-pyridyl]acetamide] |
| 0.0001 to 10 µM |  | 0.0001 to 10 µM | O=C(Cc1ccc(-c2cnc(Nc3cnn4ccccc34)nc2)cc1)Nc1cncc(C(F)(F)F)c1 [Compound P-0074, 2-[4-[2-(pyrazolo[1,5-a]pyridin-3-ylamino)pyrimidin-5-yl]phenyl]-N-[5-(trifluoromethyl)-3-pyridyl]acetamide] |
| 0.0001 to 10 µM |  | 0.0001 to 10 µM | O=C(Cc1ccc(-c2cnc3[nH]cc(F)c3c2)cc1F)Nc1cncc(C(F)(F)F)c1 [Compound P-0053, 2-[2-fluoro-4-(3-fluoro-1H-pyrrolo[2,3-b]pyridin-5-yl)phenyl]-N-[5-(trifluoromethyl)-3-pyridyl]acetamide] |
| 0.0001 to 10 µM |  | 0.0001 to 10 µM | Cc1ncc(NC(=O)Cc2ccc(-c3cnc4[nH]nc(C5CC5)c4c3)cc2F)cc1C(F)(F)F [Compound P-0066, 2-(4-(3-cyclopropyl-1H-pyrazolo[3,4-b]pyridin-5-yl)-2-fluorophenyl)-N-(6-methyl-5-(trifluoromethyl)pyridin-3-yl)acetamide] |
